Measurements as given in patent US9068343B2, “Construction element” (Termite Solutions Victoria Pty Ltd., priority 2010, dated 2015).

Tests used:
[1] = Thermogravimetric study of the stability of bifenthrin (thermal balance); format: physicochemical; settings: thermogravimetric study using a thermal balance; threshold temperature of decomposition
Procedure: In order to determine whether extrusion-based masterbatch preparation was possible without excessive thermal decomposition or volatilization of bifenthrin, a thermogravimetric study was performed using a thermal balance.

[2] = Evaporative loss of active during extrusion-based masterbatch preparation; format: physicochemical; settings: 10% bifenthrin melt mixed into EVA-LLDPE-silicate carrier resin, masterbatch pellets
Procedure: A masterbatch polymeric carrier resin was prepared by melt mixing bifenthrin (10% wt. percentage), low melting EVA polymer and either a high melt index linear low density polyethylene (LLDPE) or low density polyethylene (LDE).
In this way, 10% of the active bifenthrin was incorporated into an EVA-LLDPE-silicate carrier resin and masterbatch pellets produced.

Structure (SMILES): Cc1c(COC(=O)[C@@H]2[C@H](/C=C(\Cl)C(F)(F)F)C2(C)C)cccc1-c1ccccc1 (racemic) [bifenthrin]
- temperature at which degradation of the active occurs [1]: about 180 °C
- evaporative losses of the active [2]: no measurable evaporative losses
